These results are taken from patent US6583150B1, “Pharmaceutical composition based on polyaromatic compounds” (Laboratorie L. Lafon, priority 1999, dated 2003).

Assay [1] relates to T24. The assay is described as follows: MTT cytotoxicity test, T24. Format: cell-based. As to conditions: Homo sapiens, T-24, T24 bladder cancer, 72 hours, read-out: concentrations flanking the IC50. The protocol: (§1) The influence of the compounds of formulae I and II on neoplastic cells was evaluated using the MTT calorimetric test. The principle of the MTT test is based on the mitochondrial reduction by metabolically active live cells of the yellow-colored product MTT (3-(4,5-dimethylthiazol-2-yl)-2,5-diphenyltetrazolium bromide) to a blue-colored product, formazan. The amount of formazan thus obtained is directly proportional to the amount of live cells present in the culture well(s). This amount of formazan is measured by spectrophotometry.
(§2) The cell lines are maintained in monolayer culture at 37° C. in stoppered culture dishes containing 25 MM HEPES MEM (Minimum Essential Medium) base medium. This medium, which is suitable for growing a range of varied diploid or primary mammalian cells, is then supplemented: […]
(§3) with a an amount of 5% FCS (Fetal Calf Serum) decomplemented at 56° C. for 1 hour, with 0.6 mg/mL of L-glutamine, with 200 IU/mL of penicillin, with […] of streptomycin, with 0.1 mg/mL of gentamicin.
The 12 human cancer cell lines used were obtained from the American Type Culture Collection (ATCC, Rockville, Md., USA). These 12 cell lines are: […]

Assay [2] deals with 12 human tumor lines: U-87MG, U-373MG, SW 1088, T24, J82, HCT-15, LoVo, MCF7, T-47D, A549, A-427 and PC-3. The assay is described as follows: MTT cytotoxicity test, panel of the 12 human tumor lines. Format: cell-based. As to conditions: Homo sapiens, read-out: average IC50. The protocol:
as §1, §2, §3
The 12 human cancer cell lines used were obtained from the American Type Culture Collection (ATCC, Rockville, Md., USA). These 12 cell lines are:
U-373MG (code ATCC: HTB-17) and U-87MG (code ATCC: HTB-14) which are two glioblastomas, SW1088 (code ATCC: HTB-12) which is an astrocytoma, A549 (code ATCC: CCL-185) and A-427 (code ATCC: HTB-53) which are two non-small-cell lung cancers, HCT-15 (code ATCC: CCL-225) and LoVo (code ATCC: CCL-229) which are two colorectal cancers, T-47D (code ATCC: HTB-133) and MCF7 (code ATCC: HTB-22) which are two breast cancers, J82 (code ATCC: HTB-1) and T24 (code ATCC: HTB-4) which are two bladder cancers, PC-3 (code ATCC: CRL-1435) which is a prostate cancer.
Experimentally: 100 μl of a cell suspension containing 200 000 to 50 000 (depending on the cell type used) cells/mL of culture medium are inoculated in flat-bottomed 96-well multi-well plates and are incubated at 37° C. under an atmosphere comprising 5% CO2 and 70% humidity. After incubating for 24 hours, the culture medium is replaced with 100 μl of fresh medium containing either the various test compounds at concentrations ranging from 10^−5 to 10^−10 M or the solvent used to dissolve the test products (control condition). After incubating for 72 hours under the above conditions, the culture medium is replaced with 100 μl of a yellowish solution of MTT dissolved at a rate of 1 mg/mL in RPMI 1640. The microplates are reincubated for 3 hours at 37° C. and then centrifuged for 10 minutes at 400×g. The yellowish solution of MTT is removed and the blue formazan crystals formed at the cellular level are dissolved in 100 μl of DMSO. The microplates are then agitated for 5 minutes. The intensity of the resulting blue coloration, and thus of the conversion of the yellow MTT product into blue formazan by the cells that are still alive at the end of the experiment is quantified by spectrophotometry using a DYNATECH IMMUNOASSAY SYSTEM machine at wavelengths of 570 nm and 630 nm corresponding, respectively, to the maximum absorption wavelengths of formazan and to the background noise. Software built into the spectrophotometer calculates the average optical density values and also the standard deviation (Std. Dev.) and standard error of mean (SEM) values.
The inhibitory activity on the cell growth of the compounds of formula I and of formula II on the different tumor cell lines was compared with that of the natural product meridine (CRL 8348). All of the compounds of formula I and of formula II show significant inhibitory activity on the cell proliferation of the 12 human tumor lines: U-87MG, U-373MG, SW 1088, T24, J82, HCT-15, LoVo, MCF7, T-47D, A549, A-427 and PC-3 with an inhibitory concentration 50 (IC50) which is between 10^−6 M and 10^−10M, depending on the compounds and the tumor lines tested. By way of example, the values of the concentrations flanking the IC50 which are obtained on the various cell lines are given in table II: […]

Regarding `O=C1c2ncccc2-c2nc3ccccc3c3ccnc1c23` [CRL 8299, Benzo[b]pyrido[4,3,2-de][1,7]phenanthroline-8-one], the IC50 was under 0.1 nM in assay [1] and 2.2 nM in assay [2].
